According to patent US9326539B2, “Compositions comprising dietary fat complexers and methods for their use” (Soho Flordis International Pty. Ltd., priority 2002, dated 2016):

Experiment: in vitro study of vegetable oil, water and cyclodextrin: band of wax-like complex
Format: physicochemical
Conditions: vegetable oil 4 g, water 6 g, varying amounts of cyclodextrin (100-2,000 mg), centrifuged
Experimental: FIG. 9A-9C depicts the results of an in vitro study of vegetable oil (4 g), water (6 g) (with added food coloring for contrast) and varying amounts of (A) α-cyclodextrin (100-2,000 mg, right to left), (B) β-cyclodextrin or (C) γ-cyclodextrin. A band of “wax-like” material layered between the oil and aqueous phases is apparent in the tubes. […] Note the increasing size (right to left) of a white layer of un-reacted α-cyclodextrin in the bottom of the tubes. This material is displaced from solution by either the oil or the α-cyclodextrin-oil complex. These tubes were centrifuged in order to improve the definition of the layers. The “wax-like” complex is of such a consistency that all of the tubes except for the furthest two to the right can be inverted without leakage of the aqueous phase around the complex.
FIGS. 9A-9C depict the results of an in vitro study of vegetable oil (4 g), water (6 g) (with added food coloring for contrast) and varying amounts of (A) α-cyclodextrin (100-2,000 mg, right to left), (B) β-cyclodextrin or (C) γ-cyclodextrin. A band of “wax-like” material layered between the oil and aqueous phases is apparent in the tubes. […] Note the increasing size (right to left) of a white layer of un-reacted α-cyclodextrin in the bottom of the tubes. This material is displaced from solution by either the oil or the α-cyclodextrin-oil complex. These tubes were centrifuged in order to improve the definition of the layers. The “wax-like” complex is of such a consistency that all of the tubes in 9A except for the furthest two to the right can be inverted without leakage of the aqueous phase around the complex.
Thus one would not have expected α-cyclodextrin to complex triglyceride molecules because the molecules would not fit within the pore of the α α-cyclodextrin. […] The white substance in the bottom of the tubes is precipitated cyclodextrin.

OC[C@H]1O[C@@H]2O[C@H]3[C@H](O)[C@@H](O)[C@@H](O[C@H]4[C@H](O)[C@@H](O)[C@@H](O[C@H]5[C@H](O)[C@@H](O)[C@@H](O[C@H]6[C@H](O)[C@@H](O)[C@@H](O[C@H]7[C@H](O)[C@@H](O)[C@@H](O[C@H]8[C@H](O)[C@@H](O)[C@@H](O[C@H]9[C@H](O)[C@@H](O)[C@@H](O[C@H]1[C@H](O)[C@H]2O)O[C@@H]9CO)O[C@@H]8CO)O[C@@H]7CO)O[C@@H]6CO)O[C@@H]5CO)O[C@@H]4CO)O[C@@H]3CO [γ-cyclodextrin]
band of wax-like material (complexed fat) between oil and aqueous phases: bearly noticeable

OC[C@H]1O[C@@H]2O[C@H]3[C@H](O)[C@@H](O)[C@@H](O[C@H]4[C@H](O)[C@@H](O)[C@@H](O[C@H]5[C@H](O)[C@@H](O)[C@@H](O[C@H]6[C@H](O)[C@@H](O)[C@@H](O[C@H]7[C@H](O)[C@@H](O)[C@@H](O[C@H]8[C@H](O)[C@@H](O)[C@@H](O[C@H]1[C@H](O)[C@H]2O)O[C@@H]8CO)O[C@@H]7CO)O[C@@H]6CO)O[C@@H]5CO)O[C@@H]4CO)O[C@@H]3CO [β-cyclodextrin]
band of wax-like material (complexed fat) between oil and aqueous phases: significantly less
